The text below walks through data of US4298739A, “Novel carbostyril derivatives” (priority 1977, dated 1981).

For orientation: inhibition means the drop in the measured response relative to a control, in per cent. One may read the LD50 as the dose at which mortality reaches 50%.

For series [1], the system named is rabbit platelet. In words: Collagen-induced aggregation in rabbit platelets (AG-II Aggregometer). Format: cell-based. The settings on record: Oryctolagus cuniculus, Platelet, read-out: Inhibition effect on collagen induced aggregation in rabbit platelet; for inhibition at 100 µM (stock): 10^-4 mole; for inhibition at 10 µM (stock): 10^-5 mole; for inhibition at 1 µM (stock): 10^-6 mole. More on the design: inhibition: dose or concentration left out as unconfirmed. The procedure: (§1) The platelet aggregation inhibitory effect is measured by using AG-II Aggregometer (manufactured by Bryston Manufacturing Co.). The blood sample used for the test is a 1/9 (by volume) mixture of sodium citrate and whole blood collected from rabbit. Said sample is subjected to 10-minute centrifugal separation at 1,000 r.p.m. to obtain a platelet rich plasma (PRP). The thus obtained PRP is separated, and the remaining blood sample is further subjected to 15-minute centrifugal separation at 3,000 r.p.m. to obtain a platelet poor plasma (PPP).
(§2) The number of platelets in the PRP is counted by the Brecher-Clonkite Method, and the PRP is diluted with the PPP to prepare a PRP sample with platelet concentration of 300,000/mm^3 for the adenosine diphosphate (ADP)-induced aggregation test. There is also prepared a PRP sample with platelet concentration of 450,000/mm^3 for the collagen-induced aggregation test.
(§3) 0.6 ml of said PRP sample is added into 0.01 ml of a solution of a test compound of a predetermined concentration and the mixture is placed in a 37° C. thermostat for one minute. Then 0.07 ml of an ADP or collagen solution is added to the mixture. Transmittance of this mixture is determined and the change of transmittance is recorded by using the aggregometer at stirrer speed of 1,100 r.p.m. In this test, Auren Beronal buffer (pH 7.35) is used for the preparation of the ADP or collagen solution. ADP is adjusted to a concentration of 7.5×10^-5 M, and the collagen solution is prepared by triturating 100 mg of collagen with 5 ml of said buffer and the supernatant is used as collagen inducer. Adenosine and acetylsalicylic acid are used as controls for the ADP-induced aggregation test and the collagen-induced aggregation test, respectively. The platelet aggregation inhibitory effect is measured in terms of percent inhibition with respect to the aggregation rate of the controls. The aggregation rate is calculated from the following formula:
(§4) Aggregation rate=(c-a)/(b-a)×100
(§5) b: transmittance of PRP containing a test compound and an aggregation inducer
(§6) The inhibitory effect of the tested compounds on collagen-induced aggregation in rabbit platelets is shown in Table 1, and such effect on ADP-induced aggregation is shown in Table 2. The compounds tested are as follows.

The subject of series [2] is rabbit platelet. In words: ADP-induced aggregation in rabbit platelets (AG-II Aggregometer). The class given is cell-based. The conditions noted are these: Oryctolagus cuniculus, Platelet, read-out: Inhibition effect on ADP-induced aggregation in rabbit platelet; for inhibition at 100 µM (stock): 10^-4 mole; for inhibition at 10 µM (stock): 10^-5 mole; for inhibition at 1 µM (stock): 10^-6 mole. The procedure:
as §1, §2, §3, §4, §5, §6

A short description of series [3]: Acute toxicity test, oral administration to mice. Format: in vivo. The conditions noted are these: mouse, in vivo, Male mice. The procedure:
The test compounds were administered orally to the mice and LD50 (mg/kg) of the compounds was determined.

Bounds are passed on as bounds.

Take `O=C1CCc2c(cccc2OCC(=O)N2CCOCC2)N1` [compound 42, 5-(Morpholinocarbonylmethoxy)-3,4-dihydrocarbostyril, reference compound]: in the series on rabbit platelet [1], the inhibition at 100 µM (stock) stood at 5%, the inhibition at 10 µM (stock) is 0% and the inhibition at 1 µM (stock) is 0%. In addition, in the series on rabbit platelet [2], the inhibition at 100 µM (stock) was determined as 13%, the inhibition at 10 µM (stock) was 6% and the inhibition at 1 µM (stock) was 0%. The LD50 in series [3] was in the range of 400 to 600 mg/kg.

Regarding `O=C(O)CCCOc1ccc2[nH]c(=O)ccc2c1` [compound 39, 6-(3-Carboxypropoxy)carbostyril, reference compound], in the series on rabbit platelet [1], the inhibition at 100 µM (stock) is 28%, the inhibition at 10 µM (stock) is 15% and the inhibition at 1 µM (stock) turned out to be 0%. Besides, in the series with rabbit platelet [2], the inhibition at 100 µM (stock) came to 52%, the inhibition at 10 µM (stock) turned out to be 23% and the inhibition at 1 µM (stock) was 5%. The molecule further displayed an LD50 in series [3] of over 1000 mg/kg.

Take `O=C(CCCOc1ccc2c(c1)CCC(=O)N2)Nc1ccccc1` [compound 19, 6-[3-(Anilinocarbonyl)propoxy]-3,4-dihydrocarbostyril]: in the series with rabbit platelet [1], the inhibition at 100 µM (stock) came to 93.8% and the inhibition at 10 µM (stock) is 17.4%. In the series with rabbit platelet [2], the inhibition at 100 µM (stock) was 24.6% and the inhibition at 10 µM (stock) stood at 16.2%. The LD50 in series [3] was over 1000 mg/kg.

With `CC(C)OC(=O)C(C)Oc1ccc2[nH]c(=O)ccc2c1` (centres unmarked) [compound 31, 6-(1-Isopropoxycarbonylethoxy)carbostyril, reference compound], the LD50 in series [3] lay in the range of 900 to 1000 mg/kg.

For the molecule `CCN1C(=O)CCc2c(OCCCC(=O)NCc3ccccc3)cccc21` [compound 44, 1-Ethyl-5-[3-(N-benzylaminocarbonyl)propoxy]-3,4-dihydrocarbostyril, reference compound], in the series on rabbit platelet [1], the inhibition at 100 µM (stock) was 7%, the inhibition at 10 µM (stock) was determined as 0% and the inhibition at 1 µM (stock) was found to be 0%. For the same molecule, in the series on rabbit platelet [2], the inhibition at 100 µM (stock) was 14%, the inhibition at 10 µM (stock) came out at 6% and the inhibition at 1 µM (stock) came to 0%. The same molecule had an LD50 in series [3] of 500 to 600 mg/kg.

As for `O=C(CCCOc1ccc2[nH]c(=O)ccc2c1)NC1CCCCC1` [compound 13, 6-[3-(N-Cyclohexylaminocarbonyl)propoxy]carbostyril], in the series with rabbit platelet [1], the inhibition at 100 µM (stock) worked out at 87.5%, the inhibition at 10 µM (stock) stood at 45.8% and the inhibition at 1 µM (stock) came to 23.3%. In addition, in the series with rabbit platelet [2], the inhibition at 100 µM (stock) came out at 39.6%, the inhibition at 10 µM (stock) amounted to 24.8% and the inhibition at 1 µM (stock) worked out at 18%. This molecule showed an LD50 in series [3] of over 1000 mg/kg.

`CN(C(=O)CCCOc1ccc2c(c1)CCC(=O)N2)C1CCCCC1` [compound 15, 6-[3-(N-Methyl-N-cyclohexylaminocarbonyl)propoxy]-3,4-dihydrocarbostyril]: in the series on rabbit platelet [1], the inhibition at 100 µM (stock) stood at 94%, the inhibition at 10 µM (stock) was 92.6% and the inhibition at 1 µM (stock) amounted to 34.1%. In the series on rabbit platelet [2], the inhibition at 100 µM (stock) worked out at 88.3%, the inhibition at 10 µM (stock) was 26.8% and the inhibition at 1 µM (stock) is 10.8%. The LD50 in series [3] was over 1000 mg/kg.

Consider `CN(C(=O)CCCOc1ccc2[nH]c(=O)ccc2c1)C1CCC(O)CC1` (centres unmarked) [compound 2, 6-{3-[N-Methyl-N-(4-hydroxycyclohexyl)aminocarbonyl]propoxy}carbostyril], for which, in the series with rabbit platelet [1], the inhibition at 10 µM (stock) was 100% and the inhibition at 1 µM (stock) turned out to be 89.7%. Moreover, in the series with rabbit platelet [2], the inhibition at 10 µM (stock) is 90.3% and the inhibition at 1 µM (stock) stood at 54.3%. Also, the LD50 in series [3] was over 1000 mg/kg.

As for `CC(COc1ccc2[nH]c(=O)ccc2c1)CC(=O)N(C)C1CCCCC1` (centres unmarked) [compound 9, 6-[3-(N-Methyl-N-cyclohexylaminocarbonyl)-2-methylpropoxy]carbostyril], in the series with rabbit platelet [1], the inhibition at 100 µM (stock) came to 100%, the inhibition at 10 µM (stock) was determined as 100% and the inhibition at 1 µM (stock) worked out at 100%. For the same molecule, in the series with rabbit platelet [1] (10^-7 mole), the inhibition at 0.1 µM (stock) came out at 11.2%. Moreover, in the series on rabbit platelet [2], the inhibition at 100 µM (stock) came to 92.8%, the inhibition at 10 µM (stock) turned out to be 70.4% and the inhibition at 1 µM (stock) stood at 5.8%. Besides, in series [3], the LD50 was over 1000 mg/kg.

Turning to `CCCCCOC(=O)CCCOc1ccc2c(c1)CCC(=O)N2` [compound 33, 6-(3-Amyloxycarbonylpropoxy)-3,4-dihydrocarbostyril, reference compound], in series [3], the LD50 is over 1000 mg/kg.

`CCOC(=O)CCCOc1cccc2c1CCC(=O)N2` [compound 32, 5-(3-Ethoxycarbonylpropoxy)-3,4-dihydrocarbostyril, reference compound] yielded an LD50 in series [3] of over 1000 mg/kg.

Turning to `C=CCN(C(=O)CCCOc1ccc2c(c1)CCC(=O)N2)C1CCCCC1` [compound 14, 6-[3-(N-Allyl-N-cyclohexylaminocarbonyl)propoxy]-3,4-dihydrocarbostyril], in the series on rabbit platelet [1], the inhibition at 100 µM (stock) turned out to be 82.4%, the inhibition at 10 µM (stock) was 42.3% and the inhibition at 1 µM (stock) amounted to 15.7%. For the same molecule, in the series on rabbit platelet [2], the inhibition at 100 µM (stock) came out at 41.3%, the inhibition at 10 µM (stock) was determined as 25.7% and the inhibition at 1 µM (stock) worked out at 15.1%. Also, the LD50 in series [3] is over 1000 mg/kg.

In series [3], `CCOC(=O)C(C)Oc1ccc2c(c1)NC(=O)CC2` (centres unmarked) [compound 28, 7-(1-ethoxycarbonylethoxy)-3,4-dihydrocarbostyril, reference compound] showed an LD50 of over 1000 mg/kg.

As for `CCOC(=O)C(C)Oc1ccc2c(c1)CCC(=O)N2` (centres unmarked) [compound 25, 6-(1-Ethoxycarbonylethoxy)-3,4-dihydrocarbostyril, reference compound], the LD50 in series [3] was over 1000 mg/kg.

For the molecule `CC(=O)Oc1ccccc1C(=O)O` [compound 46, Aspirin, reference compound], the inhibition in the series with rabbit platelet [1] was 9%. In addition, in the series with rabbit platelet [2], the inhibition at 100 µM (stock) was found to be 7% and the inhibition at 10 µM (stock) is 0%.

As to `CCCCCOC(=O)C(C)Oc1ccc2c(c1)CCC(=O)N2` (centres unmarked) [compound 30, 6-(1-Amyloxycarbonylethoxy)-3,4-dihydrocarbostyril, reference compound], the LD50 in series [3] is over 1000 mg/kg.

Molecule `CCOC(=O)CCCCCCOc1ccc2c(c1)CCC(=O)N2` [compound 35, 6-(6-Ethoxycarbonylhexyloxy)-3,4-dihydrocarbostyril, reference compound] gave a median lethal dose (LD50) in series [3] of 750 to 1000 mg/kg.

`CCOC(=O)C(C)Oc1ccc2c(c1)CCC(=O)N2C` (centres unmarked) [compound 27, 1-Methyl-6-(1-ethoxycarbonylethoxy)-3,4-dihydrocarbostyril, reference compound] had an LD50 in series [3] of 800 to 1000 mg/kg.

On to `CCOC(=O)C(C)Oc1cccc2c1NC(=O)CC2` (centres unmarked) [compound 37, 8-(1-Ethoxycarbonylethoxy)-3,4-dihydrocarbostyril, reference compound], for which the median lethal dose (LD50) in series [3] lay in the range of 900 to 1000 mg/kg.

For the molecule `CCOC(=O)C(C)Oc1ccc2[nH]c(=O)ccc2c1` (centres unmarked) [compound 26, 6-(1-Ethoxycarbonylethoxy)carostyril, reference compound], in series [3], the LD50 was over 1000 mg/kg.

Regarding `O=C(O)CCCCCCOc1ccc2c(c1)CCC(=O)N2` [compound 36, 6-(6-Carboxyhexyloxy)-3,4-dihydrocarbostyril, reference compound], in series [3], the LD50 was over 1000 mg/kg.
